Assay results taken from ChEMBL document CHEMBL1142434, “Novel prostaglandin D synthase inhibitors generated by fragment-based drug design” (J Med Chem, 2008).

How the values were obtained:
[1] = target: Hematopoietic prostaglandin D synthase (Homo sapiens, UniProt O60760); assay: Inhibition of glutathione-S-transferase activity of prostaglandin D2 synthase
[2] = Toxicity against PMA/ionomycin treated human LAD2 cells assessed as cellular viability; format: cell-based
LAD2 = assay: Inhibition of PMA/ionomycin-induced PDG2 synthesis in human LAD2 cells; format: functional, cell-based

Hematopoietic prostaglandin D synthase, sequence (O60760 whole entry): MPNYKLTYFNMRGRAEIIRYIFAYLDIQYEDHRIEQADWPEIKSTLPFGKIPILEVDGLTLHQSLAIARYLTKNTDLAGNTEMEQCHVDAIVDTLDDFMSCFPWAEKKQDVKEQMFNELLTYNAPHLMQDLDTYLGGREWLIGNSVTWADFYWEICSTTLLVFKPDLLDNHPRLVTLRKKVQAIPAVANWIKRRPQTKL

In the case of `Oc1c(Cl)cc(Cl)cc1-c1cc[nH]n1`, the IC50 [1] is reported as 17.4 µM.

Compound `COC(=O)c1ccc(-c2nnc(-c3ccncc3)[nH]2)nc1` has an IC50 [1] of 1.5 µM.

For `COc1ccc(C(=O)CBr)c2ccccc12`, the IC50 [1] was 12.4 µM.

Work on `Cc1ccc(-c2cc[nH]n2)cn1` yielded an IC50 [1] of 34.7 µM.

In the case of `c1ccc(-c2ncc(-c3cc[nH]n3)s2)cc1`, the Activity [2] is reported as “Non-toxic” and the EC50 (LAD2) is reported as 1.7 µM.

Work on `COc1ccc(-c2cnn(-c3ccccc3)c2N)cc1OC` yielded an IC50 [1] of 33 µM.

Work on `Cc1ccc(NC(=O)c2cc(-c3ccccc3)ns2)cc1NC(=O)c1cccc(CN2CCN(C)CC2)c1` yielded an IC50 [1] of 0.075 µM.

For `Cc1ccc(-c2cc3c(nn2)-c2ccccc2C3=O)cc1`, the IC50 [1] was 3.8 µM.

For `O=C1c2ccccc2-c2nnc(-c3ccc(O)cc3)cc21`, the IC50 [1] was 3.8 µM.

With `COc1ccccc1-c1csc(Nc2ccc(C(=O)O)cc2)n1` the IC50 [1] was 0.994 µM.

For `CCOC(=O)c1cc(O)c(-c2ccccc2)nn1`, the IC50 [1] was 45 µM.

Work on `Cc1cc(C)c(-c2cc[nH]n2)[nH]1` yielded an IC50 [1] of 26.4 µM.
